Columns and labels:
c-kit kinase = molecular target: T1, c-kit kinase (Homo sapiens, UniProt P10721); test: c-Kit biochemical assay, AlphaScreen, 10 μM ATP; details: c-kit biochemical inhibitory activity; read-out: Biochemical activity (IC50 μM) Kit
T1 construct: The c-kit (or kinase domain thereof) is an active kinase in AlphaScreen; poly-Histidine tag (in-house protein only) (cleaved yes); host or cells: E. coli BL21(DE3)RIL, co-expressed with PTP1B
Outline: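 His-tagged c-Kit expressed in E. coli with co-expressed PTP1B (dephosphorylated), tag removed; 0.1 ng per reaction with biotinylated-peptide substrate in 50 mM HEPES pH 7.2, 5 mM MgCl2, 5 mM MnCl2, 5% DMSO, 10 μM ATP, 1 h at room temperature. Phosphorylation detected by AlphaScreen (streptavidin donor, PY20 acceptor beads); IC50 from 8-point 1:3 dilution series.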

c-kit mutant D816V = molecular target: T2, c-kit mutant D816V (Homo sapiens, UniProt P10721, D816V/DEL694-753); test: c-Kit mutant D816V biochemical assay, AlphaScreen; details: c-kit D816V biochemical inhibitory activity; read-out: Biochemical activity (IC50 μM) Kit D816V
T2 construct: residues 551-934, kinase insertion domain residues 694-753 deleted; 6x-histidine (N); made in house; host or cells: E. coli Arctic Express (DE3) RIL (Stratagene)
T2 sequence (P10721 with tags, fused parts or gaps DEL694-753/D816V): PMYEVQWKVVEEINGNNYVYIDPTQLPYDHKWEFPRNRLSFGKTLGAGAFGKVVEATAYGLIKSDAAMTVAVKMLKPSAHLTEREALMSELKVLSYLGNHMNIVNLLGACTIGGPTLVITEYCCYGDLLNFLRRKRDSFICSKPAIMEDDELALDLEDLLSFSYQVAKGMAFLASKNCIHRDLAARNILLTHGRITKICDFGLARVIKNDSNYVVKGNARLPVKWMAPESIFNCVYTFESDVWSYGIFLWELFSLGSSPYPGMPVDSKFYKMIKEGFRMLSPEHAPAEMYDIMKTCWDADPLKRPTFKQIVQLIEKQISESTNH
Outline: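 Eight-point, threefold compound series incubated 30 min at room temperature with E. coli-produced D816V kinase, 10 μM ATP, Mg2+/Mn2+ HEPES buffer pH 7.2 and 5% DMSO. After EDTA stop, streptavidin and anti-phosphotyrosine (PY20) AlphaScreen beads gave the read-out, and IC50 was fitted from the concentration–signal curve.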

T1 sequence (P10721 26-976): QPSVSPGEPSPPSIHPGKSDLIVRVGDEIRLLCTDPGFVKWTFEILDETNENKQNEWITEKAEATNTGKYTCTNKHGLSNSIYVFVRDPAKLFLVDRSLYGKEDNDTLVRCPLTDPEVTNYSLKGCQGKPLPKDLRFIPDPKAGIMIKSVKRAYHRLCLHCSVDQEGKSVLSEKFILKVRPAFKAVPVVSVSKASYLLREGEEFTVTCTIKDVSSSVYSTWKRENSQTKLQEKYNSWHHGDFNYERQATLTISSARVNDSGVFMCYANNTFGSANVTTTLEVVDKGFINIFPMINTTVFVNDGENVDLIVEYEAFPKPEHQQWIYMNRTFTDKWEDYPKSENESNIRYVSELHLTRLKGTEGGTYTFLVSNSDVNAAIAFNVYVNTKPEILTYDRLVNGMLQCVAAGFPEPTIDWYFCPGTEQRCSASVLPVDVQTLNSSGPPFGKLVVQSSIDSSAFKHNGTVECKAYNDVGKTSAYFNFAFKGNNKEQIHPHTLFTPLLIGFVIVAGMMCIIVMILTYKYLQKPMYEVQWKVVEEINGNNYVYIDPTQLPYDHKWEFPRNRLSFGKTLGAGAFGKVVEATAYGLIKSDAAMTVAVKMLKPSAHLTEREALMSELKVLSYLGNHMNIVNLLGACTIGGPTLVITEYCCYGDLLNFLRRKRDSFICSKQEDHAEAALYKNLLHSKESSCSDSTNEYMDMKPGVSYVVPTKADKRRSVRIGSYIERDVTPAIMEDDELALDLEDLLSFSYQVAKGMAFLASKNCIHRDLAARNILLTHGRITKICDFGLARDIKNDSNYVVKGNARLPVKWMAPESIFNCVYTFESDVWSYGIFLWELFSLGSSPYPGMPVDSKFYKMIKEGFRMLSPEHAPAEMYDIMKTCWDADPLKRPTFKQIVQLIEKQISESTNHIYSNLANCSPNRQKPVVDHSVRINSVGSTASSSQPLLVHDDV

Structure (SMILES)	IC50 (c-kit kinase)	IC50 (c-kit mutant D816V)
C[C@H](NC(=O)N1CCN(c2ncnc3[nH]c(-c4ccc(Cl)cc4)cc23)CC1)c1ccc(Cl)cc1 [P-0188, N-[(1S)-1-(4-chlorophenyl)ethyl]-4-[6-(4-chlorophenyl)-7H-pyrrolo[2,3-d]pyrimidin-4-yl]piperazine-1-carboxamide]	1 to 10 µM	0.0001 to 1 µM
O=C(NCc1ccc(Cl)cc1)N1CCN(c2ncnc3[nH]c(-c4ccc(Cl)cc4)cc23)CC1 [P-0212, N-[(4-chlorophenyl)methyl]-4-[6-(4-chlorophenyl)-7H-pyrrolo[2,3-d]pyrimidin-4-yl]piperazine-1-carboxamide]	1 to 10 µM	0.0001 to 1 µM
O=C(NCc1ccc(F)cc1)N1CCN(c2ncnc3[nH]c(-c4ccc(Cl)cc4)cc23)CC1 [P-0213, 4-[6-(4-chlorophenyl)-7H-pyrrolo[2,3-d]pyrimidin-4-yl]-N-[(4-fluorophenyl)methyl]piperazine-1-carboxamide]	10 to 200 µM	10 to 200 µM
CCOc1ccc(NC(=O)N2CCN(c3ncnc4[nH]c(-c5ccc(Cl)cc5)cc34)CC2)cc1 [P-0214, 4-[6-(4-chlorophenyl)-7H-pyrrolo[2,3-d]pyrimidin-4-yl]-N-(4-ethoxyphenyl)piperazine-1-carboxamide]	0.0001 to 1 µM	0.0001 to 1 µM
O=C(NCc1ccc(Cl)cc1)N1CCN(c2ncnc3[nH]c(-c4ccccc4)cc23)CC1 [P-0215, N-[(4-chlorophenyl)methyl]-4-(6-phenyl-7H-pyrrolo[2,3-d]pyrimidin-4-yl)piperazine-1-carboxamide]	10 to 200 µM	10 to 200 µM
COc1ccc(S(=O)(=O)N2CCN(c3ncnc4[nH]ccc34)CC2)cc1 [P-0217, 4-[4-(4-methoxyphenyl)sulfonylpiperazin-1-yl]-7H-pyrrolo[2,3-d]pyrimidine]	1 to 10 µM	10 to 200 µM
CCCNC(=O)N1CCN(c2ncnc3[nH]c(-c4cccnc4)cc23)CC1 [P-0218, N-propyl-4-[6-(3-pyridyl)-7H-pyrrolo[2,3-d]pyrimidin-4-yl]piperazine-1-carboxamide]	10 to 200 µM	1 to 10 µM
O=C(Nc1ccccc1Cl)N1CCN(c2ncnc3[nH]c(-c4cccnc4)cc23)CC1 [P-0219, N-(2-chlorophenyl)-4-[6-(3-pyridyl)-7H-pyrrolo[2,3-d]pyrimidin-4-yl]piperazine-1-carboxamide]	10 to 200 µM	1 to 10 µM
O=C(Nc1ccccc1Cl)N1CCN(c2ncnc3[nH]c(-c4cccnc4)cc23)CC1 [P-0220, N-(2-chlorophenyl)-4-[6-(3-pyridyl)-7H-pyrrolo[2,3-d]pyrimidin-4-yl]piperazine-1-carboxamide]	0.0001 to 1 µM	0.0001 to 1 µM
CCOc1cccc(NC(=O)N2CCN(c3ncnc4[nH]c(-c5cccnc5)cc34)CC2)c1 [P-0221, N-(3-ethoxyphenyl)-4-[6-(3-pyridyl)-7H-pyrrolo[2,3-d]pyrimidin-4-yl]piperazine-1-carboxamide]	1 to 10 µM	0.0001 to 1 µM
O=C(NCc1ccc(F)cc1)N1CCN(c2ncnc3[nH]c(-c4cccnc4)cc23)CC1 [P-0222, N-[(4-fluorophenyl)methyl]-4-[6-(3-pyridyl)-7H-pyrrolo[2,3-d]pyrimidin-4-yl]piperazine-1-carboxamide]	1 to 10 µM	1 to 10 µM
O=C(Nc1cccc(C(F)(F)F)c1)N1CCN(c2ncnc3[nH]c(-c4cccnc4)cc23)CC1 [P-0223, 4-[6-(3-pyridyl)-7H-pyrrolo[2,3-d]pyrimidin-4-yl]-N-[3-(trifluoromethyl)phenyl]piperazine-1-carboxamide]	0.0001 to 1 µM	0.0001 to 1 µM
O=C(Nc1ccc(OC(F)(F)F)cc1)N1CCN(c2ncnc3[nH]c(-c4cccnc4)cc23)CC1 [P-0224, 4-[6-(3-pyridyl)-7H-pyrrolo[2,3-d]pyrimidin-4-yl]-N-[4-(trifluoromethoxy)phenyl]piperazine-1-carboxamide]	0.0001 to 1 µM	0.0001 to 1 µM
CCOc1ccc(NC(=O)N2CCN(c3ncnc4[nH]c(-c5cccnc5)cc34)CC2)cc1 [P-0225, N-(4-ethoxyphenyl)-4-[6-(3-pyridyl)-7H-pyrrolo[2,3-d]pyrimidin-4-yl]piperazine-1-carboxamide]	10 to 200 µM	1 to 10 µM
O=C(NCc1ccc(F)cc1)N1CCN(c2ncnc3[nH]cc(-c4ccccc4)c23)CC1 [P-0226, N-[(4-fluorophenyl)methyl]-4-(5-phenyl-7H-pyrrolo[2,3-d]pyrimidin-4-yl)piperazine-1-carboxamide]	1 to 10 µM	10 to 200 µM
COc1cc(NC(=O)N2CCN(c3ncnc4[nH]c(-c5cccnc5)cc34)CC2)cc(OC)c1 [P-0229, N-(3,5-dimethoxyphenyl)-4-[6-(3-pyridyl)-7H-pyrrolo[2,3-d]pyrimidin-4-yl]piperazine-1-carboxamide]	1 to 10 µM	0.0001 to 1 µM
CC(C)(C)OC(=O)N1CCN(c2ncnc3[nH]c(-c4cccnc4)cc23)CC1 [P-0232, tert-butyl 4-[6-(3-pyridyl)-7H-pyrrolo[2,3-d]pyrimidin-4-yl]piperazine-1-carboxylate]	10 to 200 µM	10 to 200 µM
c1nc(N2CCNCC2)c2cc[nH]c2n1 [P-0233, 4-piperazin-1-yl-7H-pyrrolo[2,3-d]pyrimidine]	10 to 200 µM	10 to 200 µM
COc1ccc(C(=O)N2CCN(c3ncnc4[nH]ccc34)CC2)cc1 [P-0234, (4-methoxyphenyl)-[4-(7H-pyrrolo[2,3-d]pyrimidin-4-yl)piperazin-1-yl]methanone]	10 to 200 µM	10 to 200 µM
COc1ccc(NC(=O)N2CCN(c3ncnc4[nH]ccc34)CC2)cc1 [P-0235, N-(4-methoxyphenyl)-4-(7H-pyrrolo[2,3-d]pyrimidin-4-yl)piperazine-1-carboxamide]	10 to 200 µM	1 to 10 µM
CCCNC(=O)N1CCN(c2ncnc3[nH]c(-c4ccccc4)cc23)CC1 [P-0236, 4-(6-phenyl-7H-pyrrolo[2,3-d]pyrimidin-4-yl)-N-propyl-piperazine-1-carboxamide]	1 to 10 µM	10 to 200 µM
O=C(Nc1ccccc1Cl)N1CCN(c2ncnc3[nH]c(-c4ccccc4)cc23)CC1 [P-0237, N-(2-chlorophenyl)-4-(6-phenyl-7H-pyrrolo[2,3-d]pyrimidin-4-yl)piperazine-1-carboxamide]	0.0001 to 1 µM	1 to 10 µM
COc1cc(NC(=O)N2CCN(c3ncnc4[nH]c(-c5ccccc5)cc34)CC2)cc(OC)c1 [P-0239, N-(3,5-dimethoxyphenyl)-4-(6-phenyl-7H-pyrrolo[2,3-d]pyrimidin-4-yl)piperazine-1-carboxamide]	0.0001 to 1 µM	1 to 10 µM
CCCNS(=O)(=O)N1CCN(c2ncnc3[nH]c(-c4ccccc4)cc23)CC1 [P-0241, 4-(6-phenyl-7H-pyrrolo[2,3-d]pyrimidin-4-yl)-N-propyl-piperazine-1-sulfonamide]	1 to 10 µM	0.0001 to 1 µM
O=C(NCc1ccc(F)cc1)N1CCN(c2ncnc3[nH]c(-c4ccccc4)cc23)CC1 [P-0242, N-[(4-fluorophenyl)methyl]-4-(6-phenyl-7H-pyrrolo[2,3-d]pyrimidin-4-yl)piperazine-1-carboxamide]	0.0001 to 1 µM	1 to 10 µM
COc1cc2ncnc(-c3ccc(S(=O)(=O)Nc4ccc(Cl)cc4)cc3F)c2cc1OCCCN1CCOCC1 [P-0247, N-(4-chlorophenyl)-3-fluoro-4-[7-methoxy-6-(3-morpholinopropoxy)quinazolin-4-yl]benzenesulfonamide]	1 to 10 µM	0.0001 to 1 µM

Reference: patent publication US10227357B2, “Compounds and methods for kinase modulation, and indications therefor” (Plexxikon Inc., priority 2012, dated 2019)
